System: patients of Parkinson's disease experiencing motor fluctuations
Experiment: Multivariate logistic regression analysis of patient baseline factors associated with efficacy of istradefylline (odds ratios)
Assay type: in vivo, human
Protocol: The cut-off value for the treatment effect used to determine the efficacy of istradefylline was defined as a reduction in OFF time (1 hour or longer), an increase in ON time without troublesome dyskinesia (1 hour or longer), and an improvement in UPDRS Part III score (3 points or more) from the clinically meaningful point of view. […] Further, with respect to the UPDRS Part II score at OFF state, an improvement of 1 point or more from the sensitivity/(1-specificity) curve (ROC curve) using the UPDRS Part II score and the CGI-I score was defined as the cut-off of the effect.
The study of baseline factors having a favorable effect on the respective outcomes of the efficacy of istradefylline was performed by multivariate logistic regression analysis controlling for 12 baseline factors, which were expressed as the odds ratio (OR) and 95% confidence interval (CI). The efficacy outcomes included daily OFF time, ON time without troublesome dyskinesia, UPDRS Part III score at ON state, CGI-I, and UPDRS Part II score at OFF state. As covariates in the logistic regression analysis, age, sex, the presence or absence of dyskinesia history (determined based on the patient diary at baseline), mean daily OFF time, total UPDRS Part III score, mH&Y score at ON state and OFF state, concomitant drugs, duration of Parkinson's disease (duration of PD), duration of motor complications, L-DOPA dose, and levodopa-equivalent dose were used.
In this study, with respect to the outcomes under the treatment with istradefylline, analysis of baseline factors associated with expressing a more favorable effect was performed according to the following three steps. First, interactions between the treatment with istradefylline (two doses: 20 mg and 40 mg) and 12 baseline factors were evaluated based on type III p-value by multivariate logistic regression analysis (an index for evaluating whether or not the heterogeneity (interaction) occurs in the association between the treatment and the outcome due to a certain baseline factor). As the second step, an odds ratio (OR) was estimated for the baseline factor associated with the achievement of a more favorable effect according to the dose group of istradefylline if a significant interaction is observed between the treatment with istradefylline and the baseline factor. In addition, OR was estimated for the baseline factor associated with the achievement of a more favorable effect in all patient groups if an interaction is not observed between the treatment with istradefylline and the baseline factor.
A two-tailed p value <0.05 and an interaction p value <0.10 were determined to be statistically significant. All analyses were performed using SAS software version 9.2 or 9.3 (SAS Institute, Inc., Cary, N.C., USA).

[1] = age ≥65 vs <65 y (ref), 20 and 40 mg/day together
[2] = baseline UPDRS Part III score ≥20 vs <20 (ref), 20 and 40 mg/day together
[3] = baseline m Hoehn & Yahr scale at OFF state ≥3 vs <3 (ref), 20 and 40 mg/day together
[4] = baseline mean daily OFF time 4 to <8 h vs <4 h (ref), 20 mg/day
[5] = baseline mean daily OFF time 4 to <8 h vs <4 h (ref), 40 mg/day
[6] = baseline mean daily OFF time 4 to <8 h vs <4 h (ref), 20 and 40 mg/day together
[7] = baseline mean daily OFF time ≥8 h vs <4 h (ref), 20 mg/day
[8] = baseline mean daily OFF time ≥8 h vs <4 h (ref), 40 mg/day
[9] = baseline mean daily OFF time ≥8 h vs <4 h (ref), 20 and 40 mg/day together

Compound: CCn1c(=O)c2c(nc(/C=C/c3ccc(OC)c(OC)c3)n2C)n(CC)c1=O [istradefylline]
- Odds ratio, increase in ON time without troublesome dyskinesia (1 hour or longer) (age ≥65 vs <65 y (ref), 20 mg/day): 1.47
- Odds ratio, increase in ON time without troublesome dyskinesia (1 hour or longer) (age ≥65 vs <65 y (ref), 40 mg/day): 2.88
- Odds ratio, OFF time reduction (1 hour or longer) [1]: 2.65
- Odds ratio, improvement in CGI-I (very much, much or minimally improved) [1]: 1.17
- Odds ratio, improvement in UPDRS Part II score (OFF) [1]: 0.90
- Odds ratio, improvement in UPDRS Part III score (3 points or more) [1]: 0.65
- Odds ratio, OFF time reduction (1 hour or longer) [2]: 0.88
- Odds ratio, improvement in CGI-I (very much, much or minimally improved) [2]: 1.49
- Odds ratio, improvement in UPDRS Part II score (OFF) [2]: 0.79
- Odds ratio, improvement in UPDRS Part III score (3 points or more) [2]: 2.79
- Odds ratio, increase in ON time without troublesome dyskinesia (1 hour or longer) [2]: 0.97
- Odds ratio, improvement in UPDRS Part II score (OFF) (baseline m Hoehn & Yahr scale at OFF state ≥3 vs <3 (ref), 20 mg/day): 0.99
- Odds ratio, improvement in UPDRS Part II score (OFF) (baseline m Hoehn & Yahr scale at OFF state ≥3 vs <3 (ref), 40 mg/day): 3.50
- Odds ratio, OFF time reduction (1 hour or longer) [3]: 0.63
- Odds ratio, improvement in CGI-I (very much, much or minimally improved) [3]: 1.89
- Odds ratio, improvement in UPDRS Part III score (3 points or more) [3]: 1.81
- Odds ratio, increase in ON time without troublesome dyskinesia (1 hour or longer) [3]: 0.60
- Odds ratio, OFF time reduction (1 hour or longer) [4]: 1.27
- Odds ratio, increase in ON time without troublesome dyskinesia (1 hour or longer) [4]: 1.09
- Odds ratio, OFF time reduction (1 hour or longer) [5]: 1.58
- Odds ratio, increase in ON time without troublesome dyskinesia (1 hour or longer) [5]: 0.58
- Odds ratio, improvement in CGI-I (very much, much or minimally improved) [6]: 1.09
- Odds ratio, improvement in UPDRS Part II score (OFF) [6]: 1.00
- Odds ratio, improvement in UPDRS Part III score (3 points or more) [6]: 0.85
- Odds ratio, OFF time reduction (1 hour or longer) [7]: 1.57
- Odds ratio, increase in ON time without troublesome dyskinesia (1 hour or longer) [7]: 1.19
- Odds ratio, OFF time reduction (1 hour or longer) [8]: 6.68
- Odds ratio, increase in ON time without troublesome dyskinesia (1 hour or longer) [8]: 2.38
- Odds ratio, improvement in CGI-I (very much, much or minimally improved) [9]: 0.85
- Odds ratio, improvement in UPDRS Part II score (OFF) [9]: 0.98
- Odds ratio, improvement in UPDRS Part III score (3 points or more) [9]: 0.53

— patent US12527800B2, “Therapeutic agent for Parkinson's disease” (KYOWA KIRIN CO., LTD., priority 2019, dated 2026)
